The series can be described thus: Equilibrium partitioning of ASA / ACM into PEGDA and PEGDA-co-AM gels. Type of series: physicochemical. As to the method:
This theory is exemplified by quantifying the partitioning of aspirin between the PEGDA gel phase and 38/62 ethanol/water (v/v), and determining the concentration of aspirin in the hydrogel particles. The partitioning experiments were performed at the same solution concentration and temperature as in the nucleation induction time experiments. In the partitioning experiment, both the concentrations of aspirin and ethanol were measured, as there are three species in the bulk solution, namely aspirin, ethanol and water, all of which partition in the gel phase to a certain degree determined by their relative interaction with the PEGDA polymer matrix.
Composition of aspirin solution in the PEGDA gel phase were compared with the bulk phase. PEGDA gels sufficiently large for convenient handling were synthesized by UV polymerization, following the same formulation as the synthesis of PEGDA particles used in the crystallization study. The PEGDA gels were washed with ethanol and vacuum dried to remove unreacted species. The gel was then immersed in excessive 38 mg/ml aspirin solution in 38/62 ethanol/water (v/v) and allowed sufficient time to reach equilibrium swelling at 15° C. before taken out, pad dried, and put in excessive water. After 5 hours immersed in water, the concentrations of aspirin and ethanol in the aqueous phase were analyzed by UV-Vis spectroscopy and Gas Chromatography, respectively.
In FIG. 10: Partitioning of aspirin vs. acetaminophen in the PEGDA gel. Y axis represents the relative API concentration in the PEGDA, normalized by the bulk concentration. The aspirin partitioning experiment was conducted in 38 mg/ml aspirin solution in 38/62 ethanol/water (v/v) at 15° C. As for acetaminophen, 95 mg/ml acetaminophen solution in 38/62 ethanol/water (v/v) was used and the equilibration temperature was 8° C. In both cases, the experimental conditions were kept the same as used in the nucleation induction time study.
Quantification of polymer-solute interactions: The strength of intermolecular interactions between the PEGDA-co-AM polymer network and the molecule to crystallize was characterized with the solute equilibrium partition coefficient at the same condition as used in the crystallization study. Solute partition coefficient κ, defined as the ratio of solute mass fraction in solution confined in the gel to that in the bulk, is a relevant parameter because it informs the solute concentration in the gel at the crystallization condition, which is an important factor affecting nucleation. […] The PEGDA polymers are comprised of the PEG subchain and the acrylate crosslinkers.
Partition coefficient measurements: Partition coefficients of ASA in PEGDA-co-AM gels from its bulk solution were determined as follows. In brief, a series of gels with varying mesh sizes of approximately 5 mm in diameter and 0.5 mm in thickness were synthesized via UV polymerization following the same formula as used in the microgel synthesis. The residue solvent, porogen and monomer molecules were removed by extensive washing with solvent ethanol and subsequent vacuum drying. The dry gels were then immersed in excessive volume of 38 mg/ml ASA solution in 38/62 (v/v) ethanol/water at 15° C. for overnight.

Take `CC(=O)Oc1ccccc1C(=O)O` [aspirin]: where the note is “ASA, on average”, the “increase of κ after introducing AM into the PEGDA gel” value came out at 60%. Besides, the “molar ratio of ethylene oxide units in PEG to ASA” value (PEGDA gels, all mesh sizes, calculated from the partition experiments) is given as 7.7. Moreover, under “PEGDA-co-AM gels”, the “AM to ASA molar ratio” value is on record as “around unity” and the “ASA concentration in the PEGDA-co-AM gels relative to bulk solution” value is recorded as “as high as six times”. For the same molecule, the “aspirin concentration in PEGDA particles with respect to the bulk” value (all PEGDA particles, 38 mg/ml in 38/62 ethanol/water, 15° C) is given as “more than three times”.
